According to patent publication US9023336B2, “Deuterium-enriched aldehydes” (Protia, LLC, priority 2013, dated 2015):

Assay: Measurement of aldehyde oxidations (air autoxidation of aldehyde to carboxylic acid)
Assay type: physicochemical
Conditions: for amount of aldehyde remaining / loss of aldehyde: after 24 hours; for amount of aldehyde remaining: aldehyde 1 mmol in triacetin 2.0 mL + water 0.10 mL, stirred at room temperature under air, HPLC (benzaldehyde) or GC (hexanal); for loss of aldehyde: triacetin/water, room temperature, air
Protocol: General Procedure for Measurement of Aldehyde Oxidations
To a 12 mL clear, colorless, glass vial, fitted with a stir bar, was added the aldehyde (1 mmol), triacetin (2.0 mL), and water (0.10 mL, purified by reverse osmosis). The top of the vial was covered with a tissue and the mixture was stirred vigorously at room temperature. In the benzaldehyde reactions, (both H and D), 4.0 μL aliquots were withdrawn at 0, 0.5, 18, 25, 96, and 120 hour time points. These were diluted with ethanol (1.0 mL), and analyzed by HPLC. […] These were diluted with ethanol (1.0 mL) and analyzed by GC.
Instruments and Conditions Used for Analysis:
High pressure liquid chromatography: Agilent XDB C18 50×4.6 mm 1.8 micron column
Solvent A—Water (0.1% TFA)
Solvent B—Acetonitrile (0.07% TFA)
Gradient—5 min 95% A to 95% B then 1 minute hold. 1.5 mL/min
UV Detection (integration) @ 210 and 254 nm
HP 6890GC Column=Agilent DB-5 15 m×0.25 mm capillary column.
35° C. start (2 min hold), ramping to 100° C. at 5° C. per minute
Flame Ion Detection (integration)

Q: With `[2H]C(=O)c1ccccc1` [benzaldehyde-D] as the molecule, how does the “amount of aldehyde remaining” value read?
A: The value was “approximately 90%”.

Q: And the loss of aldehyde?
A: The loss of aldehyde was 10%.

Q: And the “reduction of autoxidation due to deuterium versus un-enriched aldehyde” value (after a period of approximately 24 hours)?
A: The value was “over 50%”.

Q: For `O=Cc1ccccc1` [benzaldehyde-H, benzaldehyde, reference compound], which “amount of aldehyde remaining” value is on record?
A: The value was “approximately 30%”.

Q: What about the loss of aldehyde of the same molecule?
A: The loss of aldehyde was 70%.
